US20030133929A1 (priority 2002, published 2003)

Assays:
[1] = system: virus particles; test: electron microscope study of virus particles before and after inactivation; details: inactivation for 60 min, 1 min and 30 seconds
[2] = system: Sinbis, Sendai and VSV viruses; details: 4° C.; cited from earlier work
[3] = system: HIV virus; details: 5 minute contact, room temperature; ether removed by distillation at 50-52° C.; cited from earlier work
[4] = biological target: blood protein factor VIII (Homo sapiens, UniProt P00451); details: cited from earlier work
blood protein factor VIII, sequence (P00451 20-2351): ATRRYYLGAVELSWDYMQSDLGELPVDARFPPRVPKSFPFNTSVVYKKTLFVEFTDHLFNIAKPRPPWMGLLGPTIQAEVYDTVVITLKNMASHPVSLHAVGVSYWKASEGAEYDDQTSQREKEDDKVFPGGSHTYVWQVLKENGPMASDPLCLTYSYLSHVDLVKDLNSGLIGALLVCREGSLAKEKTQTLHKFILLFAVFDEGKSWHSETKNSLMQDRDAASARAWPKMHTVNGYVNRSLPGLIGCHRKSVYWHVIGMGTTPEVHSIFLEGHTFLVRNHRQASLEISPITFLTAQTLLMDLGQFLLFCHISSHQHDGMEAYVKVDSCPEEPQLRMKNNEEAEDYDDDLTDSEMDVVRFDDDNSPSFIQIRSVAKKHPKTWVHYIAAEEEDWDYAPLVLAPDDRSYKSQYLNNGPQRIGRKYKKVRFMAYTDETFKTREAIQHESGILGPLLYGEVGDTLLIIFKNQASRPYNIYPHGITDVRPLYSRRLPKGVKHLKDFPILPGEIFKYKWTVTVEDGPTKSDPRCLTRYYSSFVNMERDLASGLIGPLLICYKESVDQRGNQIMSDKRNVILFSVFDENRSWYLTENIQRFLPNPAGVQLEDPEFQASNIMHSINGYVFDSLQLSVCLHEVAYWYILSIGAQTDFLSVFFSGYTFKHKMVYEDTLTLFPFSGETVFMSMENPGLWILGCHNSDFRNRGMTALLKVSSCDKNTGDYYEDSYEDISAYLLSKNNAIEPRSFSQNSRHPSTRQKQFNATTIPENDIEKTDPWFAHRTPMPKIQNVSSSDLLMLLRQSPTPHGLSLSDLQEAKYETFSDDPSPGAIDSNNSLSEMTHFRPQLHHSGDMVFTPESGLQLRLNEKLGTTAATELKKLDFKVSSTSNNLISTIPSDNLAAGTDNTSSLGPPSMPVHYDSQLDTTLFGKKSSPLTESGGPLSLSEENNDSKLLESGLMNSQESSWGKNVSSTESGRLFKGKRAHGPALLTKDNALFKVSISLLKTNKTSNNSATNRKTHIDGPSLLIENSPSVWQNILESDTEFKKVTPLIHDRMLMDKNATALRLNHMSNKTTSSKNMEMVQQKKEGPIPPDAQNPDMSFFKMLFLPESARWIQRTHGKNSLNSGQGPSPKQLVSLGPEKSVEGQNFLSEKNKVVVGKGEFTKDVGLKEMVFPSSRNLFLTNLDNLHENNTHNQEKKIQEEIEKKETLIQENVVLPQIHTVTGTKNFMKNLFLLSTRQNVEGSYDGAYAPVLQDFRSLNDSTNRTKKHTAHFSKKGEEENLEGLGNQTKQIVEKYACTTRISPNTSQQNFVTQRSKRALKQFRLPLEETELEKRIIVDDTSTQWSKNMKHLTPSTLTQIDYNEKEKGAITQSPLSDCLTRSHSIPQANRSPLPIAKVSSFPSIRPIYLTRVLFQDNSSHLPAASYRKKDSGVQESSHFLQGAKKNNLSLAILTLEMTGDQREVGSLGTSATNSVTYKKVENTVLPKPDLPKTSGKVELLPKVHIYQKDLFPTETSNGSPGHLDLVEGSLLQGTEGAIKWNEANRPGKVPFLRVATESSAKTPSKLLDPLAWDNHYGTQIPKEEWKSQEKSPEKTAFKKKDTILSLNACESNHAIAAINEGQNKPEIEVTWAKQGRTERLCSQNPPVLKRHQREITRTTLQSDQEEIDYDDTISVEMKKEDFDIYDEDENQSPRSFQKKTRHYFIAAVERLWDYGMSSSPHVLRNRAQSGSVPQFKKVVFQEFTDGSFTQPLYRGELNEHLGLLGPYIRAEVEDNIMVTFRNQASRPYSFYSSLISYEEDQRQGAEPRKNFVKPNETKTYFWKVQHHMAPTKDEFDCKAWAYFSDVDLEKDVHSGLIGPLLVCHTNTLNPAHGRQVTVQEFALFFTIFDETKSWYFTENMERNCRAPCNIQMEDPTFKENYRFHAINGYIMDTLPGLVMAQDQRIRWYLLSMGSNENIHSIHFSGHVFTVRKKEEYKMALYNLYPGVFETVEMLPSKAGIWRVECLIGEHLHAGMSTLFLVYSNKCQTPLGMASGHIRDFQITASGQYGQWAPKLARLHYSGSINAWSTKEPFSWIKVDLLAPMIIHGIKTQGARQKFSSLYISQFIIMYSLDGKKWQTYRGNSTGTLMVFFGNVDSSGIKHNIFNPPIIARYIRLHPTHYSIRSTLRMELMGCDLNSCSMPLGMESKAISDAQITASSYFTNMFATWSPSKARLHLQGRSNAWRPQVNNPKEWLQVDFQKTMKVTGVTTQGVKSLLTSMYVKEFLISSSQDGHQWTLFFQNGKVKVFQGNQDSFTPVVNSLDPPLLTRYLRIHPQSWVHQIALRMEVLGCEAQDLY

Structure (SMILES): CC(C)OC(C)C [DIPE, di-isopropyl ether]
- infectivity or visible virus particles by EM [1]: no infectivity or visible virus particles detected

Structure (SMILES): CCOCC [diethyl ether]
- time to inactivate these viruses [2]: many hours
- inactivation of the HIV virus [3]: complete inactivation

Structure (SMILES): O=C1CCO1 [β-propiolactone]
- inactivation of factor VIII [4]: up to 75%
